According to article PMC11125181, “New Inhibitors of Bcr-Abl Based on 2,6,9-Trisubstituted Purine Scaffold Elicit Cytotoxicity in Chronic Myeloid Leukemia-Derived Cell Lines Sensitive and Resistant to TKIs” (Pharmaceutics, 2024):
Read-outs that look alike come from different tables or passages of the source.

Legend:
recombinant Abl1 kinase = target: T1, recombinant Abl1 kinase (Homo sapiens, UniProt P00519); experiment: Recombinant Abl1 kinase inhibition assay ([γ-33P]ATP, peptide substrate); type: biochemical
T1 construct: made in house
T1 sequence (P00519 whole entry): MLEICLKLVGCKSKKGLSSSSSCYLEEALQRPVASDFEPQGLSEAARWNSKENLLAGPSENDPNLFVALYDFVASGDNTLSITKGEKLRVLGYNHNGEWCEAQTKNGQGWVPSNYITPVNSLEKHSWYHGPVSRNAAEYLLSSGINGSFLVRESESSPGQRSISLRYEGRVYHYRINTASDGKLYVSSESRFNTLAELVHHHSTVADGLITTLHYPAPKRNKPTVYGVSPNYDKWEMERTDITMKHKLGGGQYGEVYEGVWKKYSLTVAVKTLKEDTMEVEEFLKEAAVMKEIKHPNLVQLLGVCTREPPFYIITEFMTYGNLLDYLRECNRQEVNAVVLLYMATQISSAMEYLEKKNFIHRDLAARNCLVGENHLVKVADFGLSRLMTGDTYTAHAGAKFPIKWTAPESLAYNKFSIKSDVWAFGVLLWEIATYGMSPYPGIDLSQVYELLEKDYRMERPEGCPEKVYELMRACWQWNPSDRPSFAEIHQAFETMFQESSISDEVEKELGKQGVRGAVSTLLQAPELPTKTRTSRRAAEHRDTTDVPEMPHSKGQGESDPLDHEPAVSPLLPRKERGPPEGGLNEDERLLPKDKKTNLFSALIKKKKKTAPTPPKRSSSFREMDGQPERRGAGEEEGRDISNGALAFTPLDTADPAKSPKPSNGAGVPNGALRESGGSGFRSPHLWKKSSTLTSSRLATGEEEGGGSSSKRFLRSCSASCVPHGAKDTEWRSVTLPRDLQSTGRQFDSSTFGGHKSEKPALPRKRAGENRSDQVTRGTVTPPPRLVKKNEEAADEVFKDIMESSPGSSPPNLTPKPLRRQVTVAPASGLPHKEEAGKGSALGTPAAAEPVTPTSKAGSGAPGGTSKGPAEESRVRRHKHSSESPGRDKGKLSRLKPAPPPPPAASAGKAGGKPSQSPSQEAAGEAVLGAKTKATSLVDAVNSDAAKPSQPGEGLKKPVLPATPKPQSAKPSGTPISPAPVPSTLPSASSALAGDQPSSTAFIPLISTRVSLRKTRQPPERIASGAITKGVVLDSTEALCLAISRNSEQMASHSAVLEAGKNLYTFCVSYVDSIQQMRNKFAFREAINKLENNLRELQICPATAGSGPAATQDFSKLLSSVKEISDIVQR
Method: The reactions were stopped by adding 5 µL of 3% aq. H3PO4. […] H3PO4, and air-dried.

KBM5 = experiment: Cytotoxicity assay (resazurin) on KBM5; type: cell-based; settings: Homo sapiens, read-out: GI50 KBM5
BV173 = experiment: Cytotoxicity assay (resazurin) on BV173; type: cell-based; settings: Homo sapiens, BV-173, 72 h
Method: (§1) Human cell lines KCL22 and BV173 were obtained from the German Collection of Microorganisms and Cell Cultures, K562 and HEK-293T from the European Collection of Authenticated Cell Cultures. KBM5 cell line was kindly gifted by Vladimír Divoký. Development of KCL22 subclones B8 (T315I, 100%), F4 (E255K, 100%), and B10 (Y253H, 50%) was reported previously. All cell lines were cultivated in humidified incubator at 37 °C and in 5% CO2 according to the provider’s instructions in appropriate media supplemented with 10% fetal bovine serum, penicillin (100 IU/mL), streptomycin (100 µg/mL), and glutamine (4 mM).
(§2) Cytotoxicity was determined using resazurin, an indicator dye to measure oxidation-reduction reactions occurring in the mitochondria of live cells. The cells were seeded into 96-well plates and treated with compounds for 72 h (six different doses of each, in triplicate). After treatment, resazurin (Merck, Darmstadt, Germany) solution was added for 4 h, and the fluorescence of formed resorufin corresponding to live cell quantity was measured at 544 nm/590 nm (excitation/emission) using a Fluoroskan Ascent microplate reader (Labsystems, Vantaa, Finland).

K562 = experiment: Cytotoxicity assay (resazurin) on K562; type: cell-based; settings: Homo sapiens, 72 h
Method: as §1, §2

HEK-293T = experiment: Cytotoxicity assay (resazurin) on non-neoplastic HEK-293T; type: cell-based; settings: Homo sapiens, 72 h, non-neoplastic cells
Method: as §1, §2

[1] = tested on: KCL22 cells containing Bcr-Abl^WT; experiment: Cytotoxicity assay (resazurin) on KCL22 WT; type: cell-based, human
KCL22 B8 (T315I, 100%) = experiment: Cytotoxicity assay (resazurin) on KCL22 subclone B8; type: cell-based; settings: Homo sapiens, KCL-22, read-out: GI50 KCL22 B8 T315I (100%), 72 h
Method: as §1, §2

KCL22 F4 (E255K, 100%) = experiment: Cytotoxicity assay (resazurin) on KCL22 subclone F4; type: cell-based; settings: Homo sapiens, KCL-22, read-out: GI50 KCL22 F4 E255K (100%), 72 h
Method: as §1, §2

KCL22 B10 (Y253H, 50%) = experiment: Cytotoxicity assay (resazurin) on KCL22 subclone B10; type: cell-based; settings: Homo sapiens, KCL-22, read-out: GI50 KCL22 B10 Y253H (50%), 72 h
Method: as §1, §2

[2] = tested on: KCL22 B8 cell line containing Bcr-Abl^T315I; experiment: Cell cycle flow cytometry, KCL22 B8; type: cell-based, human; settings: 24 h treatment
Method: The cell lines were seeded into 96-well plates and then treated with compounds for 24 h. After treatment, the cells were directly stained by adding 5 × staining solution (17 mM trisodium citrate dihydrate, 0.5% IGEPAL® CA-630, 7.5 mM spermine tetrahydrochloride, 2.5 mM Tris; pH 7.6 containing 50 μg/mL propidium iodide). […] Cell cycle distribution was analyzed using ModFit LT 5.0.9 (Verity Software House, Augusta, ME, USA).

[3] = from the IC50 of Table S1, read-out: pIC50 (Table S1) (converted)
[4] = recombinant Abl1, 1 µM ATP, at least three independent experiments, read-out: IC50 Abl
[5] = Homo sapiens, KCL-22, 72 h, read-out: GI50 KCL22 WT
[6] = as listed in Table S1, Bcr-Abl WT, read-out: IC50 (Table S1)

SMILES | IC50 (recombinant Abl1 kinase; [3]) [µM] | IC50 (recombinant Abl1 kinase; [4]) [µM] | melting point [°C] | IC50 (recombinant Abl1 kinase; [6]) [µM] | GI50 (KBM5; KBM5, 72 h, resazurin assay) [µM] | GI50 (BV173) [µM] | GI50 (K562) [µM] | GI50 (HEK-293T) [µM] | GI50 [1, 5] [µM] | GI50 (KCL22 B8 (T315I, 100%)) [µM] | GI50 (KCL22 F4 (E255K, 100%)) [µM] | GI50 (KCL22 B10 (Y253H, 50%)) [µM] | GI50 (KBM5; KBM5, 72 h) [µM] | GI50 ([1]; 72 h, read-out: GI50 KCL22 WT) [µM] | GI50 ([1]; read-out: GI50 KCL22 WT, 72 h) [µM] | Effect on cell cycle distribution, KCL22 B8 (T315I) [2]
CN1CCN(Cc2ccc(Nc3nc(Nc4cccc(F)c4)c4ncn(CC5CC5)c4n3)cc2)CC1 [Compound 7a, 9-(Cyclopropylmethyl)-N^6-(3-fluorophenyl)-N^2-(4-((4-methylpiperazin-1-yl)methyl)phenyl)-9H-purine-2,6-diamine] | 0.18 | 0.18 ± 0.068 | – | – | 4.4 ± 0.8 | 3.3 ± 1.6 | 1.5 ± 0.1 | 6.3 ± 0.7 | 8.1 ± 0.5 | 13.8 ± 2 | 11.1 ± 0.5 | 7.4 ± 0.6 | – | – | – | –
CN1CCN(Cc2ccc(Nc3nc(Nc4ccc(F)c(F)c4)c4ncn(CC5CC5)c4n3)cc2)CC1 [Compound 7b, 9-(Cyclopropylmethyl)-N^6-(3,4-difluorophenyl)-N^2-(4-((4-methylpiperazin-1-yl)methyl)phenyl)-9H-purine-2,6-diamine] | 0.22 | 0.225 ± 0.042 | – | – | 4.2 ± 0.2 | 1.9 ± 0.1 | 1.4 ± 0.2 | 6.3 ± 1.2 | 8.5 ± 1.4 | 11.4 ± 3.2 | 10.1 ± 1.2 | 6.6 ± 0.2 | – | – | – | –
CN1CCN(c2ccc(Nc3nc(Nc4ccccc4)c4ncn(CC5CC5)c4n3)cc2)CC1 [Compound I, reference compound] | – | – | – | – | – | 2.2 ± 0.2 | 1.5 ± 0.1 | 7.5 ± 1.4 | – | 17.3 ± 2 | 5.7 ± 0.3 | 5.2 ± 0.2 | 2.7 ± 0.1 | – | – | –
CN1CCN(c2ccc(Nc3nc(Nc4cccc(F)c4)c4ncn(CC5CC5)c4n3)cc2)CC1 [II, reference compound] | – | – | – | – | – | 5.3 ± 0.2 | 0.8 ± 0.1 | 5.6 ± 0.6 | – | > 20 | > 20 | 8.8 ± 0.4 | 5.1 ± 0.5 | – | – | –
CN1CCN(c2ccc(Nc3nc(Nc4ccc(F)c(F)c4)c4ncn(CC5CC5)c4n3)cc2)CC1 [III, reference compound] | – | – | – | – | – | 1.4 ± 0.1 | 1.2 ± 0.4 | 5.3 ± 0.3 | – | > 20 | > 20 | 3.4 ± 0.4 | 1.1 ± 0.8 | – | – | –
Cc1ccc(NC(=O)c2ccc(CN3CCN(C)CC3)cc2)cc1Nc1nccc(-c2cccnc2)n1 [Imatinib, reference compound] | – | – | – | – | – | 0.199 ± 0.061 | 0.231 ± 0.001 | > 10 | – | > 20 | 9.6 ± 0.5 | > 20 | – | – | – | –
Cc1cn(-c2cc(NC(=O)c3ccc(C)c(Nc4nccc(-c5cccnc5)n4)c3)cc(C(F)(F)F)c2)cn1 [Nilotinib, reference compound] | – | – | – | – | 0.019 ± 0.009 | 0.003 | 0.025 ± 0.01 | > 10 | – | > 20 | 0.789 ± 0.081 | 1.4 ± 0.3 | – | 0.047 ± 0.008 | 0.019 | no effect

Further lines, with some results ahead:

IC50 (recombinant Abl1 kinase; [3]) [µM] | IC50 (recombinant Abl1 kinase; [4]) [µM] | melting point [°C] | IC50 (recombinant Abl1 kinase; [6]) [µM] | SMILES | GI50 (KBM5; KBM5, 72 h, resazurin assay) [µM] | GI50 (BV173) [µM] | GI50 (K562) [µM] | GI50 (HEK-293T) [µM] | GI50 [1, 5] [µM] | GI50 (KCL22 B8 (T315I, 100%)) [µM] | GI50 (KCL22 F4 (E255K, 100%)) [µM] | GI50 (KCL22 B10 (Y253H, 50%)) [µM] | GI50 (KBM5; KBM5, 72 h) [µM] | GI50 ([1]; 72 h, read-out: GI50 KCL22 WT) [µM] | GI50 ([1]; read-out: GI50 KCL22 WT, 72 h) [µM] | Effect on cell cycle distribution, KCL22 B8 (T315I) [2]
0.037 | 0.037 ± 0.012 | – | – | OCCN1CCN(c2ccc(Nc3nc(Nc4ccccc4)c4ncn(CC5CC5)c4n3)cc2)CC1 [Compound 11a, 2-(4-(4-((9-(Cyclopropylmethyl)-6-(phenylamino)-9H-purin-2-yl)amino)phenyl)piperazin-1-yl)ethan-1-ol] | 3 ± 0.1 | 3 ± 0.6 | 1.2 ± 0.3 | 9.5 ± 0.7 | 5.7 ± 0.8 | > 20 | 12.7 ± 0.1 | 6.3 ± 0.4 | – | – | – | –
0.019 | 0.02 ± 0.001 | – | – | OCCN1CCN(c2ccc(Nc3nc(Nc4ccc(F)c(F)c4)c4ncn(CC5CC5)c4n3)cc2)CC1 [Compound 11c, 2-(4-(4-((9-(Cyclopropylmethyl)-6-((3,4-difluorophenyl)amino)-9H-purin-2-yl)amino)phenyl)piperazin-1-yl)ethan-1-ol] | 2.1 ± 0.3 | 1.7 ± 0.1 | 0.9 ± 0.2 | 5 ± 0.9 | 2.9 | 6.4 ± 0.4 | 4.1 ± 0.2 | 4.1 ± 0.2 | – | – | – | –
1.24 | 1.24 ± 0.22 | 88.6 to 89.2 | – | CC(C)CCn1cnc2c(Nc3ccccc3)nc(Nc3ccc(N4CCN(CCO)CC4)cc3)nc21 [Compound 11d, 2-(4-(4-((9-Isopentyl-6-(phenylamino)-9H-purin-2-yl)amino)phenyl)piperazin-1-yl)ethan-1-ol] | 5.6 ± 0.4 | 3.6 ± 0.7 | 6.3 ± 0.7 | 5.7 ± 1.2 | 8.4 ± 0.3 | 7.8 ± 1.3 | 6.6 ± 0.6 | 7.8 ± 0.5 | – | – | – | –
1.76 | 1.76 ± 0.74 | – | – | CC(C)CCn1cnc2c(Nc3ccc(F)c(F)c3)nc(Nc3ccc(N4CCN(CCO)CC4)cc3)nc21 [Compound 11f, 2-(4-(4-((6-((3,4-Difluorophenyl)amino)-9-isopentyl-9H-purin-2-yl)amino)phenyl)piperazin-1-yl)ethan-1-ol] | 5.2 ± 0.1 | 4.5 ± 0.1 | 5.9 ± 0.6 | 5.2 ± 0.7 | 6.5 ± 0.2 | 7.2 ± 1 | 5.7 ± 0.1 | 7 ± 0.5 | – | – | – | –
0.83 | 0.834 ± 0.447 | – | 0.83 | CCCCCCn1cnc2c(Nc3ccccc3)nc(Nc3ccc(N4CCN(CCO)CC4)cc3)nc21 [Compound 11g, 2-(4-(4-((9-Hexyl-6-(phenylamino)-9H-purin-2-yl)amino)phenyl)piperazin-1-yl)ethan-1-ol] | 5.4 ± 0.2 | 5.2 ± 0.2 | 4.5 ± 1.4 | 8.6 ± 3.2 | 15.1 ± 2.2 | 10.4 ± 1.8 | 8.5 ± 0.9 | 7.7 ± 0.2 | – | – | – | –
0.67 | 0.674 ± 0.069 | – | 0.67 | CCCCCCn1cnc2c(Nc3cccc(F)c3)nc(Nc3ccc(N4CCN(CCO)CC4)cc3)nc21 [Compound 11h, 2-(4-(4-((6-((3-Fluorophenyl)amino)-9-hexyl-9H-purin-2-yl)amino)phenyl)piperazin-1-yl)ethan-1-ol] | 5.8 ± 0.2 | 5.2 ± 0.5 | 4.8 ± 0.4 | 6 ± 1 | 9.6 ± 1 | 9.5 ± 1.5 | 8.1 ± 1.2 | 5.9 ± 0.7 | – | – | – | –
1.68 | 1.68 ± 0.01 | 135.1 to 137.1 | – | CCCCCCn1cnc2c(Nc3ccc(F)c(F)c3)nc(Nc3ccc(N4CCN(CCO)CC4)cc3)nc21 [Compound 11i, 2-(4-(4-((6-((3,4-Difluorophenyl)amino)-9-hexyl-9H-purin-2-yl)amino)phenyl)piperazin-1-yl)ethan-1-ol] | 5.6 ± 0.2 | 4.8 ± 0.3 | 3.1 ± 0.6 | > 20 | > 20 | > 20 | > 20 | > 20 | – | – | – | –
3.95 | 3.96 ± 0.51 | 133 to 134 | 3.95 | CN1CCN(c2ccc(Nc3nc(N)c4ncn(CC5CC5)c4n3)cc2)CC1 [Compound 13a, 9-(Cyclopropylmethyl)-N^2-(4-(4-methylpiperazin-1-yl)phenyl)-9H-purine-2,6-diamine] | > 100 | > 20 | > 100 | > 100 | > 100 | > 100 | > 100 | > 100 | – | – | – | –
11 | 11.1 ± 3.31 | – | 11.1 | CN1CCN(c2ccc(Nc3nc(NC4CCCCC4)c4ncn(CC5CC5)c4n3)cc2)CC1 [Compound 13b, N^6-cyclohexyl-9-(cyclopropylmethyl)-N^2-(4-(4-methylpiperazin-1-yl)phenyl)-9H-purine-2,6-diamine] | > 20 | > 20 | 4.8 ± 0.3 | > 20 | > 20 | > 20 | > 20 | > 20 | – | – | – | –
0.839 | 0.845 ± 0.066 | 152 to 154 | 0.84 | CN1CCN(c2ccc(Nc3nc(NCc4ccccc4)c4ncn(CC5CC5)c4n3)cc2)CC1 [Compound 13c, N^6-benzyl-9-(cyclopropylmethyl)-N^2-(4-(4-methylpiperazin-1-yl)phenyl)-9H-purine-2,6-diamine] | > 20 | 11.9 ± 1.4 | 5.7 ± 0.6 | 16.7 ± 1.1 | > 20 | > 20 | > 20 | > 20 | – | – | – | –
